Measurements as given in patent US9796742B2, “Kinase inhibitors” (Respivert Limited, priority 2012, dated 2017).
Read-outs that look alike come from different tables or passages of the source.

Columns and labels:
c-Src = c-Src (Homo sapiens (Human), UniProt P12931); assay: c-Src enzyme inhibition (FRET, Z-LYTE); type: biochemical
Method: (§1) The enzyme inhibitory activities of compounds disclosed herein are determined by FRET using synthetic peptides labelled with both donor and acceptor fluorophores (Z-LYTE, Invitrogen Ltd., Paisley, UK).
(§2) The inhibitory activities of compounds of the invention against c-Src and Syk enzymes (Invitrogen), are evaluated in a similar fashion to that described hereinabove. The relevant enzyme (3000 ng/mL or 2000 ng/mL respectively, 2.5 μL) is incubated with the test compound (either 4 μg/mL, 0.4 μg/mL, 0.04 μg/mL, or 0.004 μg/mL, 2.5 μL each) for 2 hr at RT. The FRET peptides (8 μM. 2.5 μL), and appropriate ATP solutions (2.5 μL, 800 μM for c-Src, and 60 μM ATP for Syk) are then added to the enzymes/compound mixtures and incubated for 1 hr. Development reagent (protease, 5 μL) is added for 1 hr prior to detection in a fluorescence microplate reader (Varioskan® Flash, ThermoFisher Scientific).
(§3) In all cases, the site-specific protease cleaves non-phosphorylated peptide only and eliminates the FRET signal. Phosphorylation levels of each reaction are calculated using the ratio of coumarin emission (donor) over fluorescein emission (acceptor), for which high ratios indicate high phosphorylation and low ratios indicate low phosphorylation levels. The percentage inhibition of each reaction is calculated relative to non-inhibited control and the 50% inhibitory concentration (IC50 value) is then calculated from the concentration-response curve.

PBMCs [1] = assay: LPS-induced TNFα/IL-8 release in PBMC cells; type: cell-based; conditions: Homo sapiens, LPS-stimulated PBMCs
Procedure, shortened: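 Human PBMCs from healthy donors, isolated by density gradient, were pretreated with compound for 2 h and then stimulated with 1 ng/mL LPS (E. coli 0111:B4) for 24 h at 37° C, 5% CO2. Supernatant IL-8 and TNFα were measured by sandwich ELISA, and IC50 was taken from the dose-response curve.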

p38 MAPKα = p38 MAPKα (Homo sapiens (Human), UniProt Q16539); assay: p38 MAPKα enzyme inhibition (FRET, Z-LYTE; Method 2); type: biochemical
p38 MAPKα, sequence (Q16539 whole entry): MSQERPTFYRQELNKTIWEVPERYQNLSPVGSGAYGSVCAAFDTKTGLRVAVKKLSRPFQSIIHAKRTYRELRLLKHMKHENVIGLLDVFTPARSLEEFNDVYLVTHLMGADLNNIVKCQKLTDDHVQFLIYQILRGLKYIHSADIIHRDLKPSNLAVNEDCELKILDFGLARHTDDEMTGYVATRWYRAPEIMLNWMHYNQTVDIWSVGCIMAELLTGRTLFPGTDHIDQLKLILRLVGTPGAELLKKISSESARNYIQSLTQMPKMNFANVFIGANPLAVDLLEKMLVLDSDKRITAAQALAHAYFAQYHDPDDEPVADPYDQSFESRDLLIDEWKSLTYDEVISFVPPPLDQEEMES
Method: as §1
The inhibitory activities of test compounds against the p38 MAPKα isoform (MAPK14: Invitrogen), are evaluated indirectly by determining the level of activation/phosphorylation of the down-stream molecule, MAPKAP-K2. The p38 MAPKα protein (80 ng/mL, 2.5 μL) is mixed with the test compound (2.5 μL of either 4 μg/mL, 0.4 μg/mL, 0.04 μg/mL or 0.004 μg/mL) for 2 hr at RT. […] The mixture is incubated for 1 hr at RT. Development reagent (protease, 5 μL) is added for 1 hr prior to detection in a fluorescence microplate reader (Varioskan® Flash, ThermoFisher Scientific).
Method 2 This method follows the same steps as Method 1 above, but utilises a higher concentration of the p38 MAPKα protein (2.5 μL of 200 ng/mL protein instead of 2.5 μL of 80 ng/mL protein) for mixing with the test compound.
as §3

Syk = Syk (Homo sapiens (Human), UniProt P43405); assay: Syk enzyme inhibition (FRET, Z-LYTE); type: biochemical
Method: as §1, §2, §3

d-U937 cells = assay: LPS-induced TNFα/IL-8 release in d-U937 cells; type: cell-based; conditions: Homo sapiens, dU937, LPS-stimulated d-U937 cells
Method: U937 cells, a human monocytic cell line, are differentiated to macrophage-type cells by incubation with phorbol myristate acetate (PMA; 100 ng/mL) for 48 to 72 hr. Cells are pre-incubated with final concentrations of test compound for 2 hr and are then stimulated with 0.1 μg/mL of LPS (from E. Coli: O111:B4, Sigma) for 4 hr. The supernatant is collected for determination of TNFα and IL-8 concentrations by sandwich ELISA (Duo-set, R&D systems). The inhibition of TNFα production is calculated as a percentage of that achieved by 10 μg/mL of BIRB796 at each concentration of test compound by comparison against vehicle control. The relative 50% effective concentration (REC50) is determined from the resultant concentration-response curve. The inhibition of IL-8 production is calculated at each concentration of test compound by comparison with vehicle control. The 50% inhibitory concentration (IC50) is determined from the resultant concentration-response curve.

GSK3α = GSK3α (Homo sapiens (Human), UniProt P49840); assay: GSK 3α enzyme inhibition (FRET, Z-LYTE; Method 2); type: biochemical
GSK3α, sequence (P49840 whole entry): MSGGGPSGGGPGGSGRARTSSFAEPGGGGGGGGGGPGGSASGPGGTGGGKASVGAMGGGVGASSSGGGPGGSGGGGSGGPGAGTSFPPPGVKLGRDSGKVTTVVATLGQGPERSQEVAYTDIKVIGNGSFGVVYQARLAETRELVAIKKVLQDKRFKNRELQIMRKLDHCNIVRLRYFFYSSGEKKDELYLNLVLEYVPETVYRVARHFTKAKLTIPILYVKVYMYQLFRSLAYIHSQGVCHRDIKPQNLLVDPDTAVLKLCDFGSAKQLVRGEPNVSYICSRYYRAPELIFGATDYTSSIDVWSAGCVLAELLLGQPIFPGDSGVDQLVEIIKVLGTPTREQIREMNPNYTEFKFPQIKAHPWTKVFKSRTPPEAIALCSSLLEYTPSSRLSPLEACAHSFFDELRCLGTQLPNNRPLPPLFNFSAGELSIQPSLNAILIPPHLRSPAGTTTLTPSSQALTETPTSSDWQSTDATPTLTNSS
Procedure, shortened: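 GSK3-α protein preincubated with compound for 105 min, then Z-LYTE FRET peptide and ATP added for 1 h before protease development for 1 h. Phosphorylation taken from coumarin/fluorescein emission ratio; percent inhibition against uninhibited control and IC50 calculated from concentration-response curves.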

HT29 cells = assay: IL-1β-induced IL-8 release in HT29 cells; type: cell-based; conditions: Homo sapiens, HT-29, IL-1β-stimulated HT29 cells, read-out: IC50 Values for Inhibition of Cytokine Release, HT29 cells IL-8
Method: HT29 cells, a human colon adenocarcinorna cell line, are plated in a 96 well plate (24 hrs) and pre-treated with compounds at the desired concentration for 2 hours before addition of 5 ng/mL of IL-1β (Abcam) for 24 hours. Supernatants are harvested for IL-8 quantification by Sandwich ELISA (Duo-set, R&D System). The IC50 is determined from the dose response curve.

PBMCs [2] = assay: IL-2 and IFN gamma release in CD3/CD28 stimulated PBMC cells; type: cell-based; conditions: Homo sapiens
Method: PBMCs from healthy subjects are separated from whole blood using a density gradient (Lymphoprep, Axis-Shield Healthcare). Cells are added to a 96 well plate pre-coated with a mixture of CD3/[…] monoclonal antibodies (0.3 μg/mL eBioscience and 3 μg/mL BD Pharmingen respectively). Compound at the desired concentration is then added to the wells and the plate left for 3 days under normal tissue culture conditions. Supernatants are harvested and IL-2 and IFN gamma release determined by Sandwich ELISA (Duo-set, R&D System). The IC50 is determined from the dose response curve.

[3] = IL-8, read-out: IC50 Values for Inhibition of Cytokine Release, PBMCs IL-8
[4] = TNFα, read-out: IC50 Values for Inhibition of Cytokine Release, PBMCs TNFα
[5] = IL-8, read-out: IC50 Values for Inhibition of Cytokine Release, dU937 cells IL-8
[6] = TNFα (REC50 relative to BIRB796 per method), read-out: IC50 Values for Inhibition of Cytokine Release, dU937 cells TNFα
[7] = IL-2, read-out: IC50 Values for Inhibition of Cytokine Release, PBMCs IL-2
[8] = IFNγ, read-out: IC50 Values for Inhibition of Cytokine Release, PBMCs IFNγ

c-Src, sequence (P12931 whole entry, looked up): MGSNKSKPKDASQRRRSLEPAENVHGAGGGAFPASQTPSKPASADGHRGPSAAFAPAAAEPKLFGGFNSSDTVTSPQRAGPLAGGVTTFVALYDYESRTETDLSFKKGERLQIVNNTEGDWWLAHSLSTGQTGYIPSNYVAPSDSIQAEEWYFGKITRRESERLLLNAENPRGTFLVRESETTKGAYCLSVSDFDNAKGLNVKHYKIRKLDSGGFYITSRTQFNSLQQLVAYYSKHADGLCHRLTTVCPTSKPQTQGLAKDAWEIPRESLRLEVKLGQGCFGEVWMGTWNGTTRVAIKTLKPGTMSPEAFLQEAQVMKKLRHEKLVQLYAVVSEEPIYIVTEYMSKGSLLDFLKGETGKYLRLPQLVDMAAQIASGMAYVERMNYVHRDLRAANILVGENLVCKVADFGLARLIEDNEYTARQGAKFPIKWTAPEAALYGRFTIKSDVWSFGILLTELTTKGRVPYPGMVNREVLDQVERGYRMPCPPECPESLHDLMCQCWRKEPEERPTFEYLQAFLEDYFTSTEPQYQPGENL

Row | Compound | IC50 (c-Src) [nM] | IC50 (PBMCs [1]; [3]) [nM] | IC50 (PBMCs [1]; [4]) [nM] | IC50 (p38 MAPKα) [nM] | IC50 (Syk) [nM] | IC50 (d-U937 cells; [5]) [nM] | IC50 (d-U937 cells; [6]) [nM] | IC50 (GSK3α) [nM] | IC50 (HT29 cells) [nM] | IC50 (PBMCs [2]; [7]) [nM] | IC50 (PBMCs [2]; [8]) [nM]
1 | CC(C)(C)c1cc(NC(=O)Nc2ccc(Oc3ccnc(Nc4ccccc4)n3)c3ccccc23)n(-c2ccc(P(C)(C)=O)cc2)n1 [Example 1, 1-(3-(tert-Butyl)-1-(4-(dimethylphosphoryl)phenyl)-1H-pyrazol-5-yl)-3-(4-((2-(phenylamino)pyrimidin-4-yl)oxy)naphthalen-1-yl)urea] | 15 | 6.9 | 1.3 | 8 | 34 | 4.9 | 2 | 1280 |  |  | 
2 | CC(C)(C)c1cc(NC(=O)Nc2ccc(Oc3ccnc(Nc4ccccc4)n3)c3ccccc23)n(-c2cccc(P(C)(C)=O)c2)n1 [Example 2, 1-(3-(tert-Butyl)-1-(3-(dimethylphosphoryl)phenyl)-1H-pyrazol-5-yl)-3-(4-((2-(phenylamino)pyrimidin-4-yl)oxy)naphthalen-1-yl)urea] |  |  | 4.3 |  |  | 9.4 | 3.6 | 647 |  |  | 
3 | COCC(=O)Nc1cc(Oc2ccc(NC(=O)Nc3cc(C(C)(C)C)nn3-c3ccc(P(C)(C)=O)cc3)c3ccccc23)ccn1 [Example 3, N-(4-((4-(3-(3-(tert-Butyl)-1-(4-(dimethylphosphoryl)phenyl)-1H-pyrazol-5-yl)ureido)-naphthalen-1-yl)oxy)pyridin-2-yl)-2-methoxyacetamide] |  |  | 2.5 |  |  | 8.6 | 3.6 | 16 |  |  | 
4 | CC(C)c1cc(NC(=O)Nc2ccc(Oc3ccnc(Nc4ccccc4)n3)c3ccccc23)n(-c2ccc(P(C)(C)=O)cc2)n1 [Example 4, 1-(1-(4-(Dimethylphosphoryl)phenyl)-3-isopropyl-1H-pyrazol-5-yl)-3-(4-((2-(phenylamino)-pyrimidin-4-yl)oxy)naphthalen-1-yl)urea] | 12 | 58.9 | 20.8 |  |  |  | 19.2 | 220 |  |  | 
5 | CN(c1ccccc1)c1nccc(Oc2ccc(NC(=O)Nc3cc(C(C)(C)C)nn3-c3ccc(P(C)(C)=O)cc3)c3ccccc23)n1 [Example 15, 1-(3-(tert-Butyl)-1-(4-(dimethylphosphoryl)phenyl)-1H-pyrazol-5-yl)-3-(4-((2-(methyl-(phenyl)amino)pyrimidin-4-yl)oxy)naphthalen-1-yl)urea] | > 1000 | 680 | 200 | 56 | > 1000 | 398 | 182 | > 10000 | 632 |  | 
6 | CC(C)(C)c1cc(NC(=O)Nc2ccc(Oc3ccnc(Nc4ccccc4)c3)c3ccccc23)n(-c2cccc(CP(C)(C)=O)c2)n1 [Example 41, 1-(3-(tert-Butyl)-1-(3-((dimethylphosphoryl)methyl)phenyl)-1H-pyrazol-5-yl)-3-(4-((2-(phenylamino)pyridin-4-yl)oxy)naphthalen-1-yl)urea] | 56 | 2.8 |  | 357 | 96 |  |  | 4300 | 4.7 | 56.4 | 
7 | CC(C)c1cc(NC(=O)Nc2ccc(Oc3ccnc(Nc4ccccc4)c3)c3ccccc23)n(-c2cccc(CP(C)(C)=O)c2)n1 [Example 42, 1-(1-(3-((Dimethylphosphoryl)methyl)phenyl)-3-isopropyl-1H-pyrazol-5-yl)-3-(4-((2-(phenylamino)pyridin-4-yl)oxy)naphthalen-1-yl)urea] | 47 | 5.5 |  |  | 63 |  |  | 6980 | 5.6 |  | 
8 | CC(C)(C)c1cc(NC(=O)Nc2ccc(Oc3ccnc(Nc4ccccc4)c3)c3ccccc23)n(-c2cccc(CP3(=O)CCCC3)c2)n1 [Example 44, 1-(3-(tert-Butyl)-1-(3-((1-oxidophospholan-1-yl)methyl)phenyl)-1H-pyrazol-5-yl)-3-(4-((2-(phenylamino)pyridin-4-yl)oxy)naphthalen-1-yl)urea] |  | 4 |  | 201 |  |  |  | 8040 | 7.1 |  | 
9 | CC(C)c1cc(NC(=O)Nc2ccc(Oc3ccnc(Nc4cc(OCCN5CCOCC5)cc(OC(F)(F)F)c4)n3)c3ccccc23)n(-c2cccc(CP(C)(C)=O)c2)n1 [Example 48, 1-(1-(3-((Dimethylphosphoryl)methyl)phenyl)-3-isopropyl-1H-pyrazol-5-yl)-3-(4-((2-((3-(2-morpholinoethoxy)-5-(trifluoromethoxy)phenyl)amino)pyrimidin-4-yl)oxy)naphthalen-1-yl)urea] | 87 | 1.5 |  | 231 | 232 |  |  | > 10000 | 4.3 | 53.4 | 
10 | CC(C)c1cc(NC(=O)Nc2ccc(Oc3ccnc(Nc4cc(OCCN5CCOCC5)cc(C(F)(F)F)c4)n3)c3ccccc23)n(-c2cccc(CP(C)(C)=O)c2)n1 [Example 49, 1-(1-(3-((Dimethylphosphoryl)methyl)phenyl)-3-isopropyl-1H-pyrazol-5-yl)-3-(4-((2-((3-(2-morpholinoethoxy)-5-(trifluoromethyl)phenyl)amino)pyrimidin-4-yl)oxy)naphthalen-1-yl)urea] | 95 | 1.4 |  | 202 | 219 |  |  | > 10000 | 3.8 | 45.6 | 5.1
11 | CC(C)(C)c1cc(NC(=O)Nc2ccc(Oc3ccnc(Nc4cc(OCCN5CCOCC5)cc(C(F)(F)F)c4)n3)c3ccccc23)n(-c2cccc(CP(C)(C)=O)c2)n1 [Example 61, 1-(3-(tert-Butyl)-1-(3-((dimethylphosphoryl)methyl)phenyl)-1H-pyrazol-5-yl)-3-(4-((2-((3-(2-morpholinoethoxy)-5-(trifluoromethyl)phenyl)amino)pyrimidin-4-yl)oxy)naphthalen-1-yl)urea] | 14 | 2.3 |  | 303 | 24 |  |  | 4190 | 2.6 | 50.7 | 3.3
